Results reported in ChEMBL document CHEMBL1697821, “Development of a phospholipidosis database and predictive quantitative structure-activity relationship (QSAR) models” (Toxicol Mech Methods, 2008).

What follows are compounds tested on Phospholipidosis (assay: Literature-mined public compounds from Kruhlak et al phospholipidosis modelling dataset).

Row | SMILES | Phospholipidosis
1 | COCCCC/C(=N\OCCN)c1ccc(C(F)(F)F)cc1 [FLUVOXAMINE] | Positive: weak inducer based on presence of foamy macrophages and cytoplasmic vacuolations
2 | Nc1nc2ncc(CNc3ccc(C(=O)N[C@@H](CCC(=O)O)C(=O)O)cc3)nc2c(=O)[nH]1 [FOLIC ACID] | Negative: based on the absence of positive reported data from WMDD
3 | CN(CC(=O)N1CCOCC1)Cc1c(Cl)cccc1NC(=O)c1ccccc1 [FOMINOBEN] | Negative: based on the absence of positive reported data from WMDD
4 | CCC(=O)O[C@@H](O[P@](=O)(CCCCc1ccccc1)CC(=O)N1C[C@H](C2CCCCC2)C[C@H]1C(=O)O)C(C)C [FOSINOPRIL] | Negative: based on the absence of positive reported data from WMDD
5 | NC[C@@H]1O[C@H](O[C@H]2[C@@H](O)[C@H](O[C@@H]3[C@@H](O)[C@H](N)C[C@H](N)[C@H]3O[C@H]3O[C@H](CN)[C@@H](O)[C@H](O)[C@H]3N)O[C@@H]2CO)[C@H](N)[C@@H](O)[C@@H]1O [FRAMYCETIN] | Negative: based on the absence of positive reported data from WMDD
6 | NS(=O)(=O)c1cc(C(=O)O)c(NCc2ccco2)cc1Cl [FUROSEMIDE] | Negative: confirmed by electron microscopy
7 | CC[N+](CC)(CC)CCOc1cccc(OCC[N+](CC)(CC)CC)c1OCC[N+](CC)(CC)CC.[I-].[I-].[I-] [GALLAMINE TRIETHIODIDE] | Negative: based on the absence of positive reported data from WMDD
8 | Cc1ccc(C)c(OCCCC(C)(C)C(=O)O)c1 [GEMFIBROZIL] | Negative: confirmed by electron microscopy
9 | CN[C@@H]1[C@@H](O)[C@@H](O[C@@H]2[C@@H](O)[C@H](O[C@H]3O[C@H]([C@@H](C)NC)CC[C@H]3N)[C@@H](N)C[C@H]2N)OC[C@]1(C)O [GENTAMICIN C1] | Positive: strong inducer confirmed by electron microscopy
10 | CN[C@@H]1[C@@H](O)[C@@H](O[C@@H]2[C@@H](O)[C@H](O[C@H]3O[C@H](C(C)N)CC[C@H]3N)[C@@H](N)C[C@H]2N)OC[C@]1(C)O (some centres undefined) [GENTAMICIN C2] | Positive: strong inducer confirmed by electron microscopy
11 | Cc1ccc(S(=O)(=O)NC(=O)NN2CC3CCCC3C2)cc1 (centres undefined) [GLICLAZIDE] | Negative: based on the absence of positive reported data from WMDD
12 | OCC(O)CO [GLYCERIN] | Negative: based on the absence of positive reported data from WMDD
13 | NCC(=O)O [GLYCINE] | Negative: based on the absence of positive reported data from WMDD
14 | COCCOc1cnc(NS(=O)(=O)c2ccccc2)nc1 [GLYMIDINE] | Negative: based on the absence of positive reported data from WMDD
15 | COC1=CC(=O)C[C@@H](C)[C@]12Oc1c(Cl)c(OC)cc(OC)c1C2=O [GRISEOFULVIN] | Negative: based on the absence of positive reported data from WMDD
16 | CCC(C)(C)N/C(N)=N/C#N [GUANCYDINE] | Negative: based on the absence of positive reported data from WMDD
17 | N=C(N)NCCN1CCCCCCC1 [GUANETHIDINE] | Negative: based on the absence of positive reported data from WMDD
18 | O=C1CN=C(c2ccccc2)c2cc(Cl)ccc2N1CC(F)(F)F [HALAZEPAM] | Negative: based on the absence of positive reported data from WMDD
19 | CCCCN(CCCC)CCC(O)c1cc2c(Cl)cc(Cl)cc2c2cc(C(F)(F)F)ccc12 (centres undefined) [HALOFANTRINE] | Negative: based on the absence of positive reported data from WMDD
20 | O=C(CCCN1CCC(O)(c2ccc(Cl)cc2)CC1)c1ccc(F)cc1 [HALOPERIDOL] | Positive: strong inducer confirmed by electron microscopy

Row | SMILES | Phospholipidosis
21 | CC1(C)S[C@@H]2[C@H](N3C(=O)[C@@H](c4ccccc4)NC3(C)C)C(=O)N2[C@H]1C(=O)O [HETACILLIN] | Negative: based on the absence of positive reported data from WMDD
22 | C[N+]1(C)CCN(CC(O)(c2ccccc2)C2CCCCC2)CC1 (centres undefined) [HEXOCYCLIUM] | Negative: based on the absence of positive reported data from WMDD
23 | CCCCCCc1ccc(O)cc1O [HEXYLRESORCINOL] | Negative: based on the absence of positive reported data from WMDD
24 | NCCc1c[nH]cn1 [HISTAMINE] | Negative: based on the absence of positive reported data from WMDD
25 | C[N+]1(C)[C@@H]2CC[C@H]1C[C@@H](OC(=O)C(O)c1ccccc1)C2.[Br-] (some centres undefined) [HOMATROPINE METHYLBROMIDE] | Negative: based on the absence of positive reported data from WMDD
26 | CN1CCCN(C(c2ccccc2)c2ccc(Cl)cc2)CC1 (centres undefined) [HOMOCHLORCYCLIZINE] | Positive: strong inducer confirmed by electron microscopy
27 | NNc1nncc2ccccc12 [HYDRALAZINE] | Negative: based on the absence of positive reported data from WMDD
28 | NS(=O)(=O)c1cc2c(cc1C(F)(F)F)NCNS2(=O)=O [HYDROFLUMETHIAZIDE] | Negative: based on the absence of positive reported data from WMDD
29 | N=C(N)c1ccc(/C=C/c2ccc(C(=N)N)cc2O)cc1 [HYDROXYSTILBAMIDINE] | Negative: based on the absence of positive reported data from WMDD
30 | OCCOCCN1CCN(C(c2ccccc2)c2ccc(Cl)cc2)CC1 (centres undefined) [HYDROXYZINE] | Positive: strong inducer confirmed by electron microscopy
31 | CC(=O)[C@]1(O)Cc2c(O)c3c(c(O)c2[C@@H](O[C@H]2C[C@H](N)[C@H](O)[C@H](C)O2)C1)C(=O)c1ccccc1C3=O [IDARUBICIN] | Negative: based on the absence of positive reported data from WMDD
32 | CN(C)CCCN1c2ccccc2CCc2ccccc21 [IMIPRAMINE] | Positive: strong inducer confirmed by electron microscopy
33 | Nc1cc(-c2ccncc2)c[nH]c1=O [INAMRINONE] | Negative: based on the absence of positive reported data from WMDD
34 | CC1(C)C(/C=C/C=C/C=C/C=C2/N(CCCCS(=O)(=O)[O-])c3ccc4ccccc4c3C2(C)C)=[N+](CCCCS(=O)(=O)[O-])c2ccc3ccccc3c21.[Na+] [INDOCYANINE GREEN] | Negative: based on the absence of positive reported data from WMDD
35 | O=C(NC1CCN(CCc2c[nH]c3ccccc23)CC1)c1ccccc1 [INDORAMIN] | Positive: strong inducer confirmed by electron microscopy
36 | O[C@H]1[C@H](O)[C@@H](O)[C@H](O)[C@@H](O)[C@H]1O [INOSITOL] | Negative: based on the absence of positive reported data from WMDD
37 | CC(=O)NCc1c(I)c(NC(C)=O)c(I)c(C(=O)O)c1I [IODAMIDE] | Negative: based on the absence of positive reported data from WMDD
38 | O=C(CCCCC(=O)Nc1c(I)cc(I)c(C(=O)O)c1I)Nc1c(I)cc(I)c(C(=O)O)c1I [IODIPAMIDE] | Negative: based on the absence of positive reported data from WMDD
39 | O=c1[nH]c(=S)[nH]cc1I [IODOTHIOURACIL] | Negative: based on the absence of positive reported data from WMDD
40 | CNC(=O)c1c(I)c(NC(C)=O)c(I)c(C(=O)O)c1I [IOTHALAMIC ACID] | Negative: based on the absence of positive reported data from WMDD

Row | SMILES | Phospholipidosis
41 | CN(C)/C=N/c1c(I)cc(I)c(CCC(=O)O)c1I [IPODATE] | Negative: based on the absence of positive reported data from WMDD
42 | CN(C)CCCn1c2c(c3ccccc31)CCCCCC2 [IPRINDOLE] | Positive: strong inducer confirmed by electron microscopy
43 | CNC(C)CCC=C(C)C (centres undefined) [ISOMETHEPTENE] | Negative: based on the absence of positive reported data from WMDD
44 | NNC(=O)c1ccncc1 [ISONIAZID] | Negative: based on the absence of positive reported data from WMDD
45 | CC(C)[N+](C)(CCC(C(N)=O)(c1ccccc1)c1ccccc1)C(C)C [ISOPROPAMIDE] | Negative: based on the absence of positive reported data from WMDD
46 | O=[N+]([O-])O[C@@H]1CO[C@H]2[C@@H]1OC[C@@H]2O [ISOSORBIDE MONONITRATE] | Negative: based on the absence of positive reported data from WMDD
47 | CC(COc1ccccc1)NC(C)C(O)c1ccc(O)cc1 (centres undefined) [ISOXSUPRINE] | Negative: based on the absence of positive reported data from WMDD
48 | NC[C@H]1O[C@H](O[C@H]2[C@H](O)[C@@H](O[C@H]3O[C@H](CO)[C@@H](O)[C@H](N)[C@H]3O)[C@H](N)C[C@@H]2N)[C@H](O)[C@@H](O)[C@@H]1O [KANAMYCIN A] | Negative: based on the absence of positive reported data from WMDD
49 | CC(=O)N1CCN(c2ccc(OCC3COC(Cn4ccnc4)(c4ccc(Cl)cc4Cl)O3)cc2)CC1 (centres undefined) [KETOCONAZOLE] | Positive: weak inducer based on presence of foamy macrophages and cytoplasmic vacuolations
50 | CN1CCC(=C2c3ccccc3CC(=O)c3sccc32)CC1 [KETOTIFEN] | Negative: based on the absence of positive reported data from WMDD
51 | CC(CCc1ccccc1)NCC(O)c1ccc(O)c(C(N)=O)c1 (centres undefined) [LABETALOL] | Positive: weak inducer based on presence of foamy macrophages and cytoplasmic vacuolations
52 | CC(O)C(=O)O (centres undefined) [LACTIC ACID] | Negative: based on the absence of positive reported data from WMDD
53 | Nc1ccn([C@@H]2CS[C@H](CO)O2)c(=O)n1 [LAMIVUDINE] | Negative: based on the absence of positive reported data from WMDD
54 | Cc1oncc1C(=O)Nc1ccc(C(F)(F)F)cc1 [LEFLUNOMIDE] | Negative: based on the absence of positive reported data from WMDD
55 | CC(C)C[C@H](N)C(=O)O [LEUCINE] | Negative: based on the absence of positive reported data from WMDD
56 | c1ccc([C@H]2CN3CCSC3=N2)cc1 [LEVAMISOLE] | Negative: based on the absence of positive reported data from WMDD
57 | C[N+](C)(C)C[C@H](O)CC(=O)[O-] [LEVOCARNITINE] | Negative: based on the absence of positive reported data from WMDD
58 | C[C@H]1COc2c(N3CCN(C)CC3)c(F)cc3c(=O)c(C(=O)O)cn1c23.C[C@H]1COc2c(N3CCN(C)CC3)c(F)cc3c(=O)c(C(=O)O)cn1c23.O [LEVOFLOXACIN] | Negative: confirmed by electron microscopy
59 | CC[C@H](OC(C)=O)C(C[C@H](C)N(C)C)(c1ccccc1)c1ccccc1 [LEVOMETHADYL ACETATE] | Negative: based on the absence of positive reported data from WMDD
